This passage reports Emax results from article PMC7368294 (Proceedings of the National Academy of Sciences of the …, 2020).

Experiment [1] concerns the target T1, Amα1/Amα8/Amβ1 nAChR (Apis mellifera, UniProt A0A7M7MMZ9+A0A8U0WQ70+A0A8U0WQC0).
T1 sequence (A0A7M7MMZ9 44-627): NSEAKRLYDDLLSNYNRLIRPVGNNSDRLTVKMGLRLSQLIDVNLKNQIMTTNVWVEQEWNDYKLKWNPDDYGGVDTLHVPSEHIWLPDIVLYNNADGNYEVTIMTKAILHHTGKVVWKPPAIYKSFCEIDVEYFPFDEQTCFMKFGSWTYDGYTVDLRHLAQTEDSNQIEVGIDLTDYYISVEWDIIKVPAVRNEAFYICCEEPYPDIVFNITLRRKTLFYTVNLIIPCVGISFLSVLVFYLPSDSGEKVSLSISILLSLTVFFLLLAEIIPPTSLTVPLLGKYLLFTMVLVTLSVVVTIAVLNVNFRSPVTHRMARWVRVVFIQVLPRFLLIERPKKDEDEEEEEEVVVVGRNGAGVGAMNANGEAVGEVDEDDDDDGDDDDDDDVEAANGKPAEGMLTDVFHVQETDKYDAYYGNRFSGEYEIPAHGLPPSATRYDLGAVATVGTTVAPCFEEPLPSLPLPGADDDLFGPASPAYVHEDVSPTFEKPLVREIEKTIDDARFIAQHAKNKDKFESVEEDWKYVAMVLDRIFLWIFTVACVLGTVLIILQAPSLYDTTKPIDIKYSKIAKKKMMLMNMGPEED
T1 sequence (A0A8U0WQ70 25-537): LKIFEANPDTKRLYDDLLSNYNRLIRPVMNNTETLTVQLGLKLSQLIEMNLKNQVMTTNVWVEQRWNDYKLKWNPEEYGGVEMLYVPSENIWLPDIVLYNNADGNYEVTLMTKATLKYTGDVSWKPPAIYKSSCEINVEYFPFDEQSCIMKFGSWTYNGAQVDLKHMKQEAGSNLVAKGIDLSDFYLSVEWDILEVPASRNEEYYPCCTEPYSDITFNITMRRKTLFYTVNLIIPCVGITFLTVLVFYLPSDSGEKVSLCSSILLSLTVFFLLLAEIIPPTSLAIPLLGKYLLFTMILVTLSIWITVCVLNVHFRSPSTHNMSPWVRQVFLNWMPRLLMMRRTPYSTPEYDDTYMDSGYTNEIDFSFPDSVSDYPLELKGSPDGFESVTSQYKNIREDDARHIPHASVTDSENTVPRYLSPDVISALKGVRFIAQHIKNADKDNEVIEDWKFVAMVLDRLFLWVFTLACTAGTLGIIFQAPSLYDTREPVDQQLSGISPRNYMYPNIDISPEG
T1 sequence (A0A8U0WQC0 25-520): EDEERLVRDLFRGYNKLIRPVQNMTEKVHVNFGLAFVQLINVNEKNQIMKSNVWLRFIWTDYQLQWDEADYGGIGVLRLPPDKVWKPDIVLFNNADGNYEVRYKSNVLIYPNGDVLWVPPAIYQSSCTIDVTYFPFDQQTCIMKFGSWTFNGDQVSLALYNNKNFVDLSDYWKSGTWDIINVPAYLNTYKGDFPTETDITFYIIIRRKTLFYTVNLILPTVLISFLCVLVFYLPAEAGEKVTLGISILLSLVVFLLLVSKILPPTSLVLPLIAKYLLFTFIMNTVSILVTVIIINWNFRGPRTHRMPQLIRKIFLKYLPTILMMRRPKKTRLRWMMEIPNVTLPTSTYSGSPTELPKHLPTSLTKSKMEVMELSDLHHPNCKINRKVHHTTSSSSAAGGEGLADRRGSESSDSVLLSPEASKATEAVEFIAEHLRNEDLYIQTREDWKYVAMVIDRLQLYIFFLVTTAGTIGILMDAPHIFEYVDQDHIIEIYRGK
In words: cell-based. The conditions noted are these: Oocyte. Further details: species or system Xenopus laevis oocytes.

The target of experiment [2] is Amα1/Amα2/Amα8/Amβ1 nAChR (Apis mellifera, UniProt A0A7M7MMZ9+A0A8U0WQ70+A0A8U0WQC0+A0A8U0WQD1). The experiment in a line: cell-based. Details: species or system Xenopus laevis oocytes. To be noted: Oocyte.
Sequence of Amα1/Amα2/Amα8/Amβ1 nAChR (A0A8U0WQD1 18-541, one chain of several): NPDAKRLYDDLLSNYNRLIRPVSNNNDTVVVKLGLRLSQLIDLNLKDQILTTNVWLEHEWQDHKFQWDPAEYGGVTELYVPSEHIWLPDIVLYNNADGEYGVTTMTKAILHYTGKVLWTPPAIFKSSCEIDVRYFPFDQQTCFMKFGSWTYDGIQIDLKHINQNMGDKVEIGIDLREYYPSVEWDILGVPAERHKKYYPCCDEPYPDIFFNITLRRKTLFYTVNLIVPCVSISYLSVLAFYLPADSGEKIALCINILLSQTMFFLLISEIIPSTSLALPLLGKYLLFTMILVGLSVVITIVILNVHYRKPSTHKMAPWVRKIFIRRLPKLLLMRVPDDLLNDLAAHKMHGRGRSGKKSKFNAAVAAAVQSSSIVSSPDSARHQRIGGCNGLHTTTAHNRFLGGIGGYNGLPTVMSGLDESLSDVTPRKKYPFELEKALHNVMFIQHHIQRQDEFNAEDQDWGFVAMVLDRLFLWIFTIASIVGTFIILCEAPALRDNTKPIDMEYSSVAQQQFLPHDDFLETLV

Like-named read-outs stand apart in the source and are kept apart here.

With `CN/C(=N\[N+](=O)[O-])NCc1cnc(Cl)s1` [clothianidin], the Emax in experiment [1] (read-out: Clothianidin / Imax) was 78.8 ± 2%; in experiment [2] (read-out: Clothianidin / Imax) it was 76.6 ± 2.4%.
As for `O=[N+]([O-])NC1=NCCN1Cc1ccc(Cl)nc1` [imidacloprid], the figures for the Emax in experiment [1] (read-out: Imidacloprid / Imax) and in experiment [2] (read-out: Imidacloprid / Imax) were 7.5 ± 0.4% and 7 ± 0.5%, respectively.
Consider `N#C/N=C1\SCCN1Cc1ccc(Cl)nc1` [thiacloprid], for which the Emax in experiment [1] (read-out: Thiacloprid / Imax) was 5.8 ± 0.6%; in experiment [2] (read-out: Thiacloprid / Imax), 3.7 ± 0.3%.
